In the NIST ThermoML archive (doi:10.1021/je025606c):

Columns and labels:
[1] = Liquid; for kinematic viscosity: Capillary tube (Ostwald / Ubbelohde) method; for mass density: 1000 kPa, Vibrating tube method
[2] = molar heat capacity at constant pressure; conditions: Liquid

CCOCCOCC [1,2-diethoxyethane]
Conditions	kinematic viscosity [m2/s]	molar heat capacity at constant pressure [J/K/mol]
[1], 283.15 K, 101.3 kPa	9.5e-07	–
[1], 293.15 K, 101.3 kPa	8.22e-07	–
[1], 303.15 K, 101.3 kPa	7.28e-07	–
[1], 313.15 K, 101.3 kPa	6.48e-07	–
[1], 323.15 K, 101.3 kPa	5.84e-07	–
[1], 333.15 K, 101.3 kPa	5.32e-07	–
[1], 343.15 K, 101.3 kPa	4.87e-07	–
[2], 312.57 K, 1 kPa	–	264.59
[2], 322.47 K, 1 kPa	–	265.54
[2], 332.37 K, 1 kPa	–	268.37
[2], 342.27 K, 1 kPa	–	270.86
[2], 352.18 K, 1 kPa	–	273.57
[2], 362.08 K, 1 kPa	–	276.17
[2], 371.98 K, 1 kPa	–	280.31
[2], 381.88 K, 1 kPa	–	283.03
[2], 391.78 K, 1 kPa	–	286.22
[2], 401.68 K, 1 kPa	–	289.88
[2], 411.58 K, 1 kPa	–	293.43
[2], 421.48 K, 1 kPa	–	296.97

[1]
Conditions	mass density [kg/m3]
283.15 K	862.9
293.15 K	852.8
303.15 K	842.6
313.15 K	832.3
323.15 K	822
333.15 K	811.6
343.15 K	801.1
353.15 K	790.5
363.15 K	779.6
373.15 K	768.6
383.15 K	757.2
393.15 K	745.8
403.15 K	734
413.15 K	721.8
423.15 K	709.4

COCC(C)OCC(C)OC (stereo not drawn) [2-methoxy-1-(2-methoxy-1-methylethoxy)propane]
Conditions	kinematic viscosity [m2/s]	molar heat capacity at constant pressure [J/K/mol]
[1], 283.15 K, 101.33 kPa	1.41e-06	–
[1], 293.15 K, 101.33 kPa	1.2e-06	–
[1], 303.15 K, 101.33 kPa	1.03e-06	–
[1], 313.15 K, 101.33 kPa	9.03e-07	–
[1], 323.15 K, 101.33 kPa	8.01e-07	–
[1], 333.15 K, 101.33 kPa	7.19e-07	–
[1], 343.15 K, 101.33 kPa	6.5e-07	–
[1], 353.15 K, 101.33 kPa	5.93e-07	–
[1], 363.15 K, 101.33 kPa	5.51e-07	–
[1], 373.15 K, 101.33 kPa	5.06e-07	–
[1], 383.15 K, 101.33 kPa	4.69e-07	–
[1], 393.15 K, 101.33 kPa	4.37e-07	–
[1], 403.15 K, 101.33 kPa	4.07e-07	–
[1], 413.15 K, 101.33 kPa	3.81e-07	–
[1], 423.15 K, 101.33 kPa	3.59e-07	–
[2], 312.57 K, 1000 kPa	–	328.67
[2], 322.47 K, 1000 kPa	–	332.56
[2], 332.37 K, 1000 kPa	–	336.62
[2], 342.27 K, 1000 kPa	–	340.35
[2], 352.18 K, 1000 kPa	–	345.22
[2], 362.08 K, 1000 kPa	–	349.92
[2], 371.98 K, 1000 kPa	–	354.14
[2], 381.88 K, 1000 kPa	–	359.49
[2], 391.78 K, 1000 kPa	–	364.69
[2], 401.68 K, 1000 kPa	–	369.71
[2], 411.58 K, 1000 kPa	–	373.93
[2], 421.48 K, 1000 kPa	–	381.23

[1]
Conditions	mass density [kg/m3]
283.15 K	913
293.15 K	903.4
303.15 K	894
313.15 K	884.8
323.15 K	875.4
333.15 K	866
343.15 K	856.5
353.15 K	846.9
363.15 K	837
373.15 K	827.2
383.15 K	817.2
393.15 K	807.2
403.15 K	797.1
413.15 K	786.8
423.15 K	776.3

CCCCOCCOCCOCCOCCCC [5,8,11,14-tetraoxaoctadecane]
Conditions	kinematic viscosity [m2/s]	molar heat capacity at constant pressure [J/K/mol]
[1], 283.15 K, 101.33 kPa	5.42e-06	–
[1], 293.15 K, 101.33 kPa	4.16e-06	–
[1], 303.15 K, 101.33 kPa	3.3e-06	–
[1], 313.15 K, 101.33 kPa	2.7e-06	–
[1], 323.15 K, 101.33 kPa	2.25e-06	–
[1], 333.15 K, 101.33 kPa	1.92e-06	–
[1], 343.15 K, 101.33 kPa	1.67e-06	–
[1], 353.15 K, 101.33 kPa	1.46e-06	–
[1], 363.15 K, 101.33 kPa	1.3e-06	–
[1], 373.15 K, 101.33 kPa	1.17e-06	–
[1], 383.15 K, 101.33 kPa	1.04e-06	–
[1], 393.15 K, 101.33 kPa	9.49e-07	–
[1], 403.15 K, 101.33 kPa	8.68e-07	–
[1], 413.15 K, 101.33 kPa	7.98e-07	–
[1], 423.15 K, 101.33 kPa	7.37e-07	–
[2], 312.57 K, 1000 kPa	–	544.45
[2], 322.47 K, 1000 kPa	–	547.86
[2], 332.37 K, 1000 kPa	–	553.9
[2], 342.27 K, 1000 kPa	–	559.14
[2], 352.18 K, 1000 kPa	–	564.65
[2], 362.08 K, 1000 kPa	–	571.48
[2], 371.98 K, 1000 kPa	–	578.82
[2], 381.88 K, 1000 kPa	–	584.33
[2], 391.78 K, 1000 kPa	–	589.58
[2], 401.68 K, 1000 kPa	–	597.71
[2], 411.58 K, 1000 kPa	–	603.75
[2], 421.48 K, 1000 kPa	–	612.15

[1]
Conditions	mass density [kg/m3]
283.15 K	926.1
293.15 K	917.7
303.15 K	909.4
313.15 K	901.2
323.15 K	893
333.15 K	884.8
343.15 K	876.5
353.15 K	868.2
363.15 K	859.8
373.15 K	851.4
383.15 K	843
393.15 K	834.5
403.15 K	826.1
413.15 K	817.6
423.15 K	809.1
